# Columns and labels:
# parenchymal organs = details: LB-100 2 mg/kg in combination with FK506 0.2 mg/kg s.c. or GPI-1046 10 mg/kg s.c.
# Experimental: Mice were injected intraperitoneally with 2 mg/kg body weight LB-100 (LDN, Sigma, St. Louis, USA) every alternate day starting at the day of surgery, control mice received equivalent volume of vehicle buffer.
# ARNT/HIF1β homodimer = ARNT/HIF1β homodimer formation upon PP1/PP2A inhibition; details: for ARNT/HIF1β homodimer formation: Okadaic acid: PP1/PP2A inhibition, Tautomycin: PP1, LB-100: PP2A
# Excerpt: Based on previous reports that combined inhibition of PP1/PP2A with Okadaic acid is capable to induce ARNT/HIF1β homodimer formation and transactivation activity by directly blocking ARNT dephosphorylation (163), the inventors first confirmed enhanced […] homodimer formation upon PP1/PP2A inhibition (FIG. 57A). […] See also FIG. 58.
# FKBP12, YY1, ARNT = assay: In vivo-morpholino knockdown: intrarenal protein levels (immunostaining, immunoblotting); details: UUO mice, VMO 12.5 mg/kg intraperitoneally, vs control-VMO
# Experimental: Mice were injected intraperitoneally with 12.5 mg/kg body weight in vivo-morpholinos (Gene Tools, Philomath, USA) in saline at a final volume of 100 μL every other day starting two days prior of surgery (114), sequence alignments were performed using NCBI Nucleotide Blast and are listed in Tables 3-5 (157). A control in vivo-morpholino that targets a human β-globin intron mutation was used as standard control (116).
# (§1) For immunofluorescent staining, primary antibodies against ARNT (5537S, Cell Signaling, Danvers, USA), Hif1α (H6535, Sigma, St. Louis, USA), Hif2α (ab20654, Abcam Biochemicals, Cambridge, UK), phosphorylated Smad1/5/8 (pSmad1/5/8, sc-12353, Santa Cruz Biotechnology, Dallas, USA), CD45 (550539, BD Biosciences, Franklin Lakes, USA), Collagen-1 (ab34710, Abcam Biochemicals, Cambridge, UK), α-smooth muscle actin (aSMA, A5228, Sigma, St. Louis, USA), FKBP12 (ab2918, Abcam Biochemicals, Cambridge, UK) and YY1 (ab12132, Abcam Biochemicals, Cambridge, UK) were used, secondary antibodies were labeled with Alexa Fluor 488 or 568 (Life Technologies, Carlsbad, USA). Renal basement membranes were stained with antibodies against Collagen-4 (1340-30, SouthernBiotech, Birmingham, USA), cardiac cell membranes with antibodies against WGA (W11261, Life Technologies, Carlsbad, USA). Nuclear staining was performed using 4′,6-diamidino-2-phenylindole (DAPI, Vector Laboratories, Burlingame, USA). Relative areas positive for Collagen-1, aSMA, tubular nuclei positive for ARNT and pSmad1/5/8 were quantified in 10 high power fields per section at 400× magnification.
# Tissue and cells were homogenized in NP40 lysis buffer (Life technologies, Carlsbad, USA) supplemented with protease inhibitor cocktail (Roche, Basel, Switzerland). […] Luminescence was detected by using chemiluminescent substrate (Cell Signaling, Danvers, USA) on a ChemiDoc XRS system (Bio-Rad, Hercules, USA). […]
# UUO-challenged kidneys = assay: Unilateral ureteral obstruction (UUO): tubular injury and interstitial fibrosis (histology, immunostaining); assay type: in vivo, mice; details: UUO; for tubular injury and tubulointerstitial fibrosis: VMO 12.5 mg/kg intraperitoneally or FK506 0.2 mg/kg orally per day; for effect of FK506 on ALK3 expression or reno-protection: VMO added to FK506
# [1] = test system: intrarenal ARNT/ALK3 signaling; assay: UUO kidneys: ARNT/ALK3 expression and pSmad1/5/8 (qRT-PCR, immunoblotting, immunostaining); assay type: in vivo, mice; details: for intrarenal ARNT, ALK3 and nuclear pSmad1/5/8 immunostaining: UUO, VMO 12.5 mg/kg intraperitoneally or FK506 0.2 mg/kg orally per day
# Experimental: Eight to twelve weeks-old C57/6, yGTcre−;Yy1fl/fl and yGTcre+;Yy1fl/fl mice were anesthetized with isoflurane inhalation (2-3%), analgesia was performed by subcutaneous injection of 0.1 mg/kg body weight per day Buprenorphine. The ureter was separated from the surrounding tissues and two ligatures were placed about 5 mm apart in upper two-thirds of the left ureter to obtain reliable obstruction. Mice were sacrificed 3, 7 or 10 days after ureteral obstruction for further analyses, as described before (53, 153-155).
# Paraffin-embedded specimens were deparaffinized in xylene and rehydrated in ethanol containing distilled water. Tissue sections were stained using polyclonal antibodies against ALK3 (sc-20736, Santa Cruz Biotechnology, Dallas, USA) and ARNT (3718S, Cell Signaling, Danvers, USA), peroxidase labeling was performed using Vectastain Universal Elite ABC Kit (Vector Laboratories, Burlingame, USA) according to the manufacturer's protocol. AEC Substrate-Chromogen (Dako, Glostrup, Denmark) was applied for peroxidase visualization according to the manufacturer's protocol. Nuclear counterstain was performed by using Mayer's Hematoxylin Solution (Sigma, St. Louis, USA).
# as §1
# For SYBR-based real-time PCR, cDNA synthesis was performed by using DNase I digestion (Invitrogen, Carlsbad, USA) and SuperScript II Reverse Transcriptase (Invitrogen, Carlsbad, USA) according to the manufacturer's protocol. 1 μL of reverse-transcribed cDNA was added to the reaction mixture containing the primer pair (200 nmol/L each) and diluted 2× Fast SYBR Green Master Mix (Applied Biosystems, Carlsbad, USA) in a final volume of 20 μL for each PCR reaction. The real-time PCR reactions were performed in a 96-well reaction plate using the StepOne Plus Real-Time System (Applied Biosystems, Carlsbad, USA) and were done in triplicates. An initiation step at 95° C. for 20 seconds was followed by 40 cycles at 95° C. for 3 to seconds and 60° C. for 30 seconds, with one cycle of dissociation at 95° C. for 15 seconds, 60° C. for 60 seconds, and 95° C. for 15 seconds. The intercalation of SYBR Green dye and its fluorescent signal is directly proportional to the amount of amplified DNA and was transformed into the cycle threshold (Ct). For normalization, the Ct values of the housekeeping genes Gapdh and Actb were subtracted from the Ct values of the gene of interest to generate the dCt values. The relative expression levels were calculated using the equation 2^−ddCt.
# Tissue and cells were homogenized in NP40 lysis buffer (Life technologies, Carlsbad, USA) supplemented with protease inhibitor cocktail (Roche, Basel, Switzerland).
# [2] = FK506 0.02-5.0 mg/kg or CsA 10 mg/kg orally per day starting one day prior to UUO
compound,measurement,setting,value
CN1CCN(C(=O)C2C(C(=O)O)[C@H]3CC[C@@H]2O3)CC1 (stereo partly drawn) [LB-100],protection by FK506/GPI-1046,parenchymal organs,enhances protection
same,ARNT/HIF1β homodimer formation,ARNT/HIF1β homodimer,enhanced
same,endogenous ARNT,ARNT/HIF1β homodimer; by protection from degradation,effectively increases
same,ARNT homodimer formation (mass spectrometry),ARNT/HIF1β homodimer; in the presence of LB-100,enhancement
C=C1[C@@H](O)[C@@H]2O[C@]3(CC[C@H](/C=C/[C@@H](C)[C@@H]4CC(C)=C[C@@]5(O[C@H](C[C@@](C)(O)C(=O)O)CC[C@H]5O)O4)O3)CC[C@H]2O[C@@H]1[C@@H](O)C[C@H](C)[C@H]1O[C@@]2(CCCCO2)CC[C@H]1C [Okadaic acid],ARNT/HIF1β homodimer formation,ARNT/HIF1β homodimer,enhanced
CO[C@H]([C@H](O)CC(=O)[C@@H](C)[C@@H](O)CC[C@@H](C)[C@@H]1O[C@]2(CC[C@@H](C)[C@H](CC[C@H](C)C(C)=O)O2)CC[C@@H]1C)[C@H](OC(=O)C[C@@H](O)C1=C(C)C(=O)OC1=O)C(C)C [Tautomycin],ARNT/HIF1β homodimer formation,ARNT/HIF1β homodimer,did not affect
"Arnt-VMO: in vivo-morpholinos targeting translational start site of Arnt (antisense AAGAGCCACTCCGCAGATTAGGCAC; all phosphorodiamidate morpholino (PMO); in vivo-morpholino, delivery moiety not given here, further chemistry not fully specified)",intrarenal protein levels of respective transcript,"FKBP12, YY1, ARNT",effectively reduced
Cyclosporine A [CsA],chronic tubular injury,UUO-challenged kidneys; [2],failed to attenuate
same,interstitial fibrosis,UUO-challenged kidneys; [2],failed to attenuate
same,expression of ALK3,"[1]; UUO-challenged murine kidneys, treatment starting one day prior",failed to induce
"Fkbp12-VMO: in vivo-morpholinos targeting translational start site of Fkbp12 (SEQ ID NO: 9) (antisense AGATGGTCTCCACCTGCACTCCCAT; all phosphorodiamidate morpholino (PMO); in vivo-morpholino, delivery moiety not given here, further chemistry not fully specified)",tubular injury and tubulointerstitial fibrosis,UUO-challenged kidneys,attenuated
same,effect of FK506 on ALK3 expression or reno-protection,UUO-challenged kidneys,did not further enhance
same,intrarenal protein levels of respective transcript,"FKBP12, YY1, ARNT",effectively reduced
same,"intrarenal ARNT, ALK3 and nuclear pSmad1/5/8 immunostaining",[1],equally induced
"Yy1-VMO: in vivo-morpholinos targeting translational start site of Yy1 (SEQ ID NO: 10) (antisense TGTAGAGGGTGTCGCCCGAGGCCAT; all phosphorodiamidate morpholino (PMO); in vivo-morpholino, delivery moiety not given here, further chemistry not fully specified)",tubular injury and tubulointerstitial fibrosis,UUO-challenged kidneys,attenuated
same,effect of FK506 on ALK3 expression or reno-protection,UUO-challenged kidneys,did not further enhance
same,intrarenal protein levels of respective transcript,"FKBP12, YY1, ARNT",effectively reduced
same,"intrarenal ARNT, ALK3 and nuclear pSmad1/5/8 immunostaining",[1],equally induced

# From patent US12440479B2, “Prevention or treatment of chronic organ injury” (GEORG-AUGUST-UNIVERSITAET GOETTINGEN, STIFTUNG …, priority 2018, dated 2025)
